Reference: patent publication US10208033B2, “β-carboline, dihydro-β-carboline and tetrahydro-β-carboline alkaloid derivatives and preparation methods same and use in aspects of preventing and treating plant viruses, fungicides and insecticides” (NANKAI UNIVERSITY, priority 2013, dated 2019)
Where a name gives a salt, the structure may show the parent alone. Read-outs that look alike come from different tables or passages of the source.

What was measured:
[1] = tested on: tobacco mosaic virus (TMV); assay: Anti-TMV in vitro effect (half-leaf soaking); format: cell-based, tobacco mosaic virus (host Nicotiana tabacum L.cv.Xanthi NN)
[2] = tested on: tobacco mosaic virus (TMV); assay: Anti-TMV in vivo inactivation; set-up: species or system tobacco mosaic virus (host Nicotiana tabacum L.cv.Xanthi NN)
[3] = tested on: tobacco mosaic virus (TMV); assay: Anti-TMV in vivo therapeutic effect; set-up: species or system tobacco mosaic virus (host Nicotiana tabacum L.cv.Xanthi NN)
[4] = tested on: tobacco mosaic virus (TMV); assay: Anti-TMV in vivo protective effect; set-up: species or system tobacco mosaic virus (host Nicotiana tabacum L.cv.Xanthi NN)
cucumber fusarium wilt = assay: Fungicidal (bactericidal) activity in vitro, PDA colony diameter; format: cell-based; details: 50 mg/kg
Cercospora arachidicola = assay: as above; format: cell-based; details: 50 mg/kg
Macrophoma kawatsukai = assay: as above; format: cell-based; details: 50 mg/kg
Alternaria solani = assay: as above; format: cell-based; details: 50 mg/kg
Fusarium graminearumt = assay: microbe, parasite or virus in culture; format: cell-based; details: 50 mg/kg
potato late blight = assay: microbe, parasite or virus in culture; format: cell-based
Sclerotinia scleotiorum = assay: Fungicidal (bactericidal) activity in vitro, PDA colony diameter; format: cell-based; details: 50 mg/kg
Botrytis cinerea = assay: as above; format: cell-based; details: 50 mg/kg
Rhizoctonia solani = assay: as above; format: cell-based; details: 50 mg/kg
Phytophthora capsici = assay: as above; format: cell-based; details: 50 mg/kg
Fusarium fujikuroi = assay: as above; format: cell-based; details: 50 mg/kg
Rhizoctonia cereali = assay: as above; format: cell-based; details: 50 mg/kg
Bipolaria maydis = assay: organism not typed; format: cell-based; details: 50 mg/kg
[5] = tested on: Colletotrichum orbiculare; assay: Fungicidal (bactericidal) activity in vitro, PDA colony diameter; format: cell-based; details: 50 mg/kg
armyworms = format: in vivo; details: concentration 600 mg/kg
cotton bollworms = assay: whole plant or invertebrate; details: concentration 600 mg/kg
Description: Experimental method of cotton bollworms: feed and drug mixing method: measure 3 mL of prepared solution and add it to about 27 g of newly prepared feed, thereby obtaining needed concentration through dilution by 10 times.

mosquito larvae = assay: whole plant or invertebrate; details: concentration 10 mg/kg, 24 h
Method in brief: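 Compound dissolved in acetone (or other solvent) to a 1000 ppm stock and diluted in water to 5 ppm. Ten Culex pipiens pallens larvae at the start of the fourth instar, laboratory-reared, added per beaker; solvent-only aqueous control.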

corn borers = details: concentration 600 mg/kg

Compound	Relative inhibition rate (%) In vitro activity ([1]; treatment dose 100 μg/mL) [%]	Relative inhibition rate (%) In vitro activity ([1]; treatment dose 500 μg/mL) [%]	Relative inhibition rate (%) In vivo inactivation ([2]; treatment dose 100 μg/mL) [%]	Relative inhibition rate (%) In vivo inactivation ([2]; treatment dose 500 μg/mL) [%]	Relative inhibition rate (%) In vivo therapy ([3]; treatment dose 100 μg/mL) [%]	Relative inhibition rate (%) In vivo therapy ([3]; treatment dose 500 μg/mL) [%]	Relative inhibition rate (%) In vivo protection ([4]; treatment dose 100 μg/mL) [%]	Relative inhibition rate (%) In vivo protection ([4]; treatment dose 500 μg/mL) [%]	Bactericidal activity (%) Cucumber fusarium wilt (cucumber fusarium wilt) [%]	Bactericidal activity (%) Cercospora arachidicola (Cercospora arachidicola) [%]	Bactericidal activity (%) Macrophoma kawatsukai (Macrophoma kawatsukai) [%]	Bactericidal activity (%) Alternaria solani (Alternaria solani) [%]	Bactericidal activity (%) Fusarium graminearumt (Fusarium graminearumt) [%]	Bactericidal activity (%) Sclerotinia scleotiorum (Sclerotinia scleotiorum) [%]	Bactericidal activity (%) Botrytis cinerea (Botrytis cinerea) [%]	Bactericidal activity (%) Rhizoctonia solani (Rhizoctonia solani) [%]	Bactericidal activity (%) Phytophthora capsici (Phytophthora capsici) [%]	Bactericidal activity (%) Fusarium fujikuroi (Fusarium fujikuroi) [%]	Bactericidal activity (%) Rhizoctonia cereali (Rhizoctonia cereali) [%]	Bactericidal activity (%) Bipolaria maydis (Bipolaria maydis) [%]	further results
COc1ccc(C=NNC(=O)[C@@H]2Cc3c([nH]c4ccccc34)[C@H](C)N2)cc1 [Ic-8, (1S, 3S)—N′-(4-methoxybenzylidene)-1-methyl-2,3,4,9-tetrahydropyridino [3,4-b] indol-3-formylhydrazine]	28.7	62.5	30.4	69.1	34.8	66.4	31.8	70	23.1	64.7	72.2	30.0	65.5	94.1	59.1	59.2	73.7	64.3	84.3	68.0	Bactericidal activity (%) potato late blight (potato late blight): 52.0%; Bactericidal activity (%) Colletotrichum orbiculare [5]: 55.6%; Armyworm Mortality (%) (armyworms): 20%; Cotton bollworm Mortality (%) (cotton bollworms): 35%; Mosquito larvae Mortality (%) (mosquito larvae): 35%; Corn borer Mortality (%) (corn borers): 15%
C[C@@H]1N[C@H](C(=O)NCCO)Cc2c1[nH]c1ccccc21 [Ib-18, (1S, 3S)—N-(2-ethoxyl)-1-methyl-2,3,4,9-tetrahydro-pyridino [3,4-b] indol-3-formamide]	5.4	37.6	10	41.5	18.6	40	12.1	41	23.8	21.4	70.6	27.8	28.6	68.0	27.3	35.7	36.4	35.7	53.1	26.3	Bactericidal activity (%) potato late blight (potato late blight): 5.0%; Bactericidal activity (%) Colletotrichum orbiculare [5]: 23.8%; Armyworm Mortality (%) (armyworms): 5%; Cotton bollworm Mortality (%) (cotton bollworms): 5%; Mosquito larvae Mortality (%) (mosquito larvae): 10%; Corn borer Mortality (%) (corn borers): 5%
CCOC(=O)C1Cc2c([nH]c3ccccc23)C(C)=N1 (centres unmarked) [Ib-14, 1-methyl-4,9-dihydro-pyridino [3,4-b] indol-3-ethyl formate]	11.1	42.6	0	35.7	15.9	45.8	21.4	47	23.1	69.2	33.3	42.1	42.9	29.4	36.4	59.2	15.6	28.6	65.8	36.4	Bactericidal activity (%) potato late blight (potato late blight; 50 mg/kg): 36.4%; Bactericidal activity (%) Colletotrichum orbiculare [5]: 42.9%; Armyworm Mortality (%) (armyworms): 10%; Cotton bollworm Mortality (%) (cotton bollworms): 30%; Mosquito larvae Mortality (%) (mosquito larvae): 30%; Corn borer Mortality (%) (corn borers): 10%
COc1cccc(C=NNC(=O)[C@@H]2Cc3c([nH]c4ccccc34)[C@H](C)N2)c1 [Ic-9, (1S, 3S)—N′-(3-methoxybenzylidene)-1-methyl-2,3,4,9-tetrahydropyridino [3,4-b] indol-3-formylhydrazine]	13.2	53.2	22.1	59.2	16.5	54	20.6	54.7	34.6	58.8	69.4	65.0	41.4	88.2	68.2	68.4	81.6	57.1	92.2	48.0	Bactericidal activity (%) potato late blight (potato late blight): 40.0%; Bactericidal activity (%) Colletotrichum orbiculare [5]: 40.7%; Armyworm Mortality (%) (armyworms): 35%; Cotton bollworm Mortality (%) (cotton bollworms): 30%; Mosquito larvae Mortality (%) (mosquito larvae): 75%; Corn borer Mortality (%) (corn borers): 40%
